Results taken from patent US9845297B2, “Antimicrobial compounds and methods of making and using the same” (Melinta Therapeutics, Inc., priority 2009, dated 2017).
Where two headings read alike, the source gives them in different places.

System: Eschericia coli strain ATCC25922
Assay: standard microdilution assay to determine minimum inhibitory concentrations (MICs)
Type: cell-based
Details: Escherichia coli
Outline: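 Broth microdilution per CLSI protocols, typically 100 µL final volume, against E. coli ATCC25922. MIC values scored as +/− against a cutoff of 16 micrograms/ml.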

[1] = ATCC25922, Eschericia coli strain ATCC25922, standard microdilution assay, read-out: E. coli ATCC25922 MIC

NCCCN(CCCN)Cc1ccc(-c2c[nH]c(NC(=O)Nc3ccc(F)c(F)c3)nc2=O)cc1 [Compound 171]
MIC [1]: > 16 µg/mL

NCCCN(CCCCO)Cc1ccc(-c2c[nH]c(NC(=O)Nc3ccccc3OC(F)(F)F)nc2=O)cc1 [Compound 355]
MIC [1]: < 16 µg/mL

NCCCN(Cc1ccc(-c2c[nH]c(NC(=O)Nc3cc(F)c(F)cc3F)nc2=O)cc1)Cc1nccs1 [Compound 339]
MIC [1]: > 16 µg/mL

Cn1ccnc1CN(CCCN)Cc1ccc(-c2c[nH]c(NC(=O)Nc3ccccc3OC(F)(F)F)nc2=O)cc1 [Compound 345]
MIC [1]: > 16 µg/mL

CN(C(=O)C[C@H](CCCNC(=N)N)NC(=O)CCCO)C1CNC(NC(N)=O)=NC1=O (stereo partly shown) [Compound 101]
MIC (ATCC25922, read-out: E. coli ATCC25922 MIC): > 16 µg/mL

NCCCNCc1ccc(-n2ccc(NC(N)=O)nc2=O)cc1 [Compound 131]
MIC [1]: > 16 µg/mL

N=C(N)NCCCC(CCCn1ccc(NC(=O)c2ccc(N3CCOCC3)nc2)nc1=O)NCCCN (stereo not shown) [Compound 187]
MIC [1]: > 16 µg/mL

NCCCN(CCCN)Cc1ccc(-c2c[nH]c(NC(=O)Nc3cc(F)c(F)cc3F)nc2=O)cc1F [Compound 311]
MIC [1]: > 16 µg/mL

O=C(Nc1nc(=O)c(-c2ccc(CNCCc3c[nH]c(=O)[nH]3)cc2)c[nH]1)Nc1ccccc1OC(F)(F)F [Compound 448]
MIC [1]: > 16 µg/mL

N=C(N)NCCCNCc1ccc(-c2c[nH]c(NC(=O)NC3CCN(Cc4cc(F)c(F)cc4F)CC3)nc2=O)cc1 [Compound 652]
MIC [1]: > 16 µg/mL

NCCCCN1CCN(c2c[nH]c(NC(=O)Nc3ccccc3OC(F)(F)F)nc2=O)CC1 [Compound 522]
MIC [1]: > 16 µg/mL

N=C(N)NCCCCN1CCC(c2c[nH]c(NC(=O)Nc3cc(F)c(F)cc3F)nc2=O)CC1 [Compound 546]
MIC [1]: > 16 µg/mL

NCCCN1CCN(C(=O)Cc2c[nH]c(NC(=O)Nc3cccc(Cl)c3Cl)nc2=O)CC1 [Compound 408]
MIC [1]: > 16 µg/mL

NCCCN(CCC(=O)O)Cc1ccc(-c2c[nH]c(NC(=O)Nc3cc(F)c(F)cc3F)nc2=O)cc1 [Compound 320]
MIC [1]: > 16 µg/mL

CN(C(=O)C[C@H](CCCNC(=N)N)NC(=O)CCN1CCNCC1)C1CNC(NC(N)=O)=NC1=O (stereo partly shown) [Compound 108]
MIC [1]: > 16 µg/mL

COc1nc(NC(=O)NCCc2nc3ccccc3o2)ncc1-c1ccc(CNCCCN)c(F)c1 [Compound 526]
MIC [1]: > 16 µg/mL

NCCCN(CCCO)Cc1ccc(-c2c[nH]c(NC(=O)Nc3ccccc3OC(F)(F)F)nc2=O)cc1 [Compound 324]
MIC [1]: < 16 µg/mL

O=C(Nc1nc(=O)c(CC(=O)N2CCNCC2)c[nH]1)Nc1ccccc1OC(F)(F)F [Compound 409]
MIC [1]: > 16 µg/mL

CC(C)=CCNCc1ccc(-c2c[nH]c(NC(=O)Nc3ccccc3OC(F)(F)F)nc2=O)cc1 [Compound 316]
MIC [1]: > 16 µg/mL

NCCCN(Cc1ccc(-c2c[nH]c(NC(=O)Nc3ccccc3OC(F)(F)F)nc2=O)cc1)Cc1ncc[nH]1 [Compound 326]
MIC [1]: > 16 µg/mL

O=C(NCc1ccc(F)cc1)Nc1nc(=O)c(-c2ccc(CNCCCF)c(Cl)c2)c[nH]1 [Compound 257]
MIC [1]: > 16 µg/mL

CN(C)C(=O)CN1CCN(c2ccc(NC(=O)Nc3nc(=O)c(-c4ccc(CN(CCCN)CCCN)cc4)c[nH]3)cc2)CC1 [Compound 211]
MIC [1]: > 16 µg/mL

CN(CCCN(CCCN)Cc1ccc(-c2c[nH]c(NC(=O)Nc3ccccc3OC(F)(F)F)nc2=O)cc1)C(=N)N [Compound 365]
MIC [1]: < 16 µg/mL

NCCCNCc1ccc(-c2c[nH]c(Nc3nc4ccccc4[nH]3)nc2=O)c(F)c1 [Compound 493]
MIC [1]: < 16 µg/mL

N=C(N)NCCCCCN1CCN(c2c[nH]c(NC(=O)Nc3cc(F)c(F)cc3F)nc2=O)CC1 [Compound 505]
MIC [1]: > 16 µg/mL

NCCCNCc1ccc(-c2c[nH]c(NC(=O)NCc3nc4ccccc4[nH]3)nc2=O)cc1F [Compound 556]
MIC [1]: > 16 µg/mL

Cn1ccnc1CN(CCCN)Cc1ccc(-c2c[nH]c(NC(=O)Nc3cc(F)c(F)cc3F)nc2=O)cc1 [Compound 336]
MIC [1]: > 16 µg/mL

Cc1nc(-c2cccc(NC(=O)Nc3nc(=O)c(-c4ccc(CNCCCN)c(F)c4)c[nH]3)c2)cs1 [Compound 424]
MIC [1]: > 16 µg/mL

NC(=O)NCCCNCc1ccc(-c2c[nH]c(NC(=O)Nc3ccccc3OC(F)(F)F)nc2=O)cc1 [Compound 374]
MIC [1]: > 16 µg/mL

N=C(N)NCCCN(CCCN)Cc1ccc(-c2c[nH]c(NC(=O)NCCc3c(Cl)cccc3Cl)nc2=O)cc1 [Compound 477]
MIC [1]: > 16 µg/mL

NCCCNCc1ccc(-c2c[nH]c(NC(=O)Nc3c(F)c(F)c(F)c(F)c3F)nc2=O)cc1F [Compound 449]
MIC [1]: > 16 µg/mL

NCCCNCc1ccc(-c2c[nH]c(NC(=O)Nc3cc(F)c(F)cc3F)nc2=O)cc1 [Compound 239]
MIC [1]: > 16 µg/mL

N=C(N)NCCCN(CCCN)Cc1ccc(-c2c[nH]c(NC(=O)Nc3cc(Cl)cc(Cl)c3)nc2=O)cc1 [Compound 453]
MIC [1]: < 16 µg/mL

N=C(N)NCCC[C@@H](CCCn1ccc(NC(N)=O)nc1=O)NCCCN [Compound 130]
MIC [1]: > 16 µg/mL

O=C(Nc1nc(=O)c(-c2ccc(CNCc3ncc[nH]3)cc2)c[nH]1)Nc1ccccc1OC(F)(F)F [Compound 314]
MIC [1]: > 16 µg/mL

N=C(N)NCCCN1CCN(C(=O)Cc2c[nH]c(NC(=O)Nc3ccccc3OC(F)(F)F)nc2=O)CC1 [Compound 429]
MIC [1]: > 16 µg/mL

Cc1nc(-c2cnccn2)sc1C(=O)Nc1ccn(CCC[C@H](CCCNC(=N)N)NCCCN)c(=O)n1 [Compound 167]
MIC [1]: > 16 µg/mL

NCCCNCc1ccc(-c2c[nH]c(NC(=O)Nc3ccc(OC(F)F)cc3)nc2=O)cc1C(F)(F)F [Compound 270]
MIC [1]: > 16 µg/mL

NCCCNCc1ccc(-c2c[nH]c(NC(=O)Nc3ccccc3OCCNC(N)=O)nc2=O)cc1 [Compound 1295]
MIC [1]: > 16 µg/mL

O=C(Nc1nc(=O)c(-c2ccc(CNCCCc3cccnc3)cc2)c[nH]1)Nc1ccccc1OC(F)(F)F [Compound 364]
MIC [1]: > 16 µg/mL

COc1cc2nc(Nc3nc(=O)c(-c4ccc(CN(CCCN)CCCN)c(F)c4)c[nH]3)[nH]c2cc1OC [Compound 370]
MIC [1]: > 16 µg/mL

N=C(N)NCCCCN1CCC(c2c[nH]c(Nc3nc4ccccc4[nH]3)nc2=O)CC1 [Compound 510]
MIC [1]: > 16 µg/mL

NCCCNCc1ccc(-c2c[nH]c(NC(=O)NCCCc3cc(F)c(F)cc3F)nc2=O)cc1F [Compound 574]
MIC [1]: > 16 µg/mL
